Measurements reported in patent US20250136558A1, “PYRAZINE COMPOUNDS AS IRREVERSIBLE INHIBITORS OF FLT3” (BIOMEA FUSION, INC., priority 2021, published 2025).

Tests used:
Assay type in all cases: cell-based
MV-4-11 = assay: Proliferation inhibition (CellTiter-Glo) in MV-4-11 cells; details: Homo sapiens, MV4-11, 96 h, MV-4-11 AML cells, homozygous FLT3-ITD, IC50 (4 days)
From the text: (§1) The Proliferation Inhibitory Effect was Investigated in Human AML Cell Lines MOLM-13 (AddexBio: C0003003) [REF: Pubmed: 9305600] and MV-4-11 (ATCC: CRL-9591) [REF PMID: 3496132], and CML cell line […] (ATCC: CRL-3343) [REF PMID: 163658]. Molm-13 is heterozygous for FLT3-ITD mutation, while MV4-11 is homozygous for FLT3-ITD [PMID: 12529668]. […] Cells were maintained in RPMI-1640 medium (ThermoFisher catalog no. 61870036) supplemented with 10% of Heat Inactivated FBS (ThermoFisher catalog no.A31605) and 1% Pen-Strep (Thermofisher catalog no. 10378016) and cultured at 37° C. in a humidified incubator with 5% CO2. Cell lines were […], and the cells were maintained in a range 70%-80% confluency.
(§2) ATP is present in all metabolically active cells and is considered as a marker for cell viability and proliferation. Metabolic cell activity was determined using the CellTiter-Glo kit (Promega catalog no. G7572), an ATP monitoring system based on the production of luminescence by the reaction of ATP with added UltraGlo® recombinant luciferase (Kawano et al., 2016, PLOS One, 8; 11(7):e0158888), according to the supplier's experimental recommendations. The assay was based on a 96 well plate format.
(§3) Test compounds were dissolved at 10 mM in DMSO (Sigma catalog no. D8418; purity 299.9%) and stored at −20° C. Eight concentrations of test compound were assessed in duplicate in an individual test occasion in parallel in the selected cell lines. Gilteratinib and FF-10101 were used as reference compounds and tested in duplicate at eight concentrations. 100% of proliferation is represented by the untreated cells (0.2% DMSO).
(§4) On the day of the experiment (TO), cells were quantified with the cell viability analyser NucleoCounter (Chemometec NC-200) and diluted with fresh medium to obtain the cell density of about 10,000 cells per 200 μL medium. 200 μL of cell suspension were added into wells in the 96 well plate.
(§5) After 2 hours from seeding cells, compounds were added using a D300e compound dispenser (Life Sciences Tecan D300) at desired concentrations with shaking between each compound dispensed. Cell plates containing 200 μL/well suspension were incubated at 37° C. in a humidified incubator with […].
(§6) […] Contents were mixed for 5 min on an orbital shaker to induce cell lysis, and then incubated at room temperature for an additional 10 min in the dark to stabilize the luminescent signal. Luminescence was read by using a GloMax GM300 plate reader (Promega) using the luminescence for 96 well plate standard protocol.
(§7) Results were analysed by GraphPad (Prism) and IC50 values were calculated by non-linear regression using four parameter-logistic equation.

K-562 = assay: Proliferation inhibition (CellTiter-Glo) in K-562 cells; details: Homo sapiens, K562, 96 h, K-562 CML cells, no FLT3 mutations, IC50 (4 days)
From the text: as §1, §2, §3, §4, §5, §6, §7

MOLM-13 = assay: Proliferation inhibition (CellTiter-Glo) in MOLM-13 cells; details: Homo sapiens, 96 h, MOLM-13 AML cells, heterozygous FLT3-ITD, IC50 (4 days)
From the text: as §1, §2, §3, §4, §5, §6, §7

Row | IC50 (MV-4-11) [nM] | IC50 (K-562) [nM] | IC50 (MOLM-13) [nM] | SMILES
1 | 10 to 100 | > 500 | 100 to 500 | C=CC(=O)NCCNc1cc(Nc2nc(NC3CCOCC3)c(CC)nc2C(N)=O)ccn1 [Compound 20, 3-((2-((2-Acrylamidoethyl)amino)pyridin-4-yl)amino)-6-ethyl-5-((tetrahydro-2H-pyran-4-yl)amino)pyrazine-2-carboxamide]
2 | 10 to 100 | 100 to 500 | 10 to 100 | C#CC(=O)NCCNc1cc(Nc2nc(NC3CCOCC3)c(CC)nc2C(N)=O)ccn1 [Compound 21, 6-Ethyl-3-((2-((2-propiolamidoethyl)amino)pyridin-4-yl)amino)-5-((tetrahydro-2H-pyran-4-yl)amino)pyrazine-2-carboxamide]
3 | 10 to 100 | > 500 | 10 to 100 | CC#CC(=O)NCCNc1cc(Nc2nc(NC3CCOCC3)c(CC)nc2C(N)=O)ccn1 [Compound 22, 3-((2-((2-(But-2-ynamido)ethyl)amino)pyridin-4-yl)amino)-6-ethyl-5-((tetrahydro-2H-pyran-4-yl)amino)pyrazine-2-carboxamide]
4 | 10 to 100 | 100 to 500 | 10 to 100 | C=CS(=O)(=O)NCCNc1cc(Nc2nc(NC3CCOCC3)c(CC)nc2C(N)=O)ccn1 [Compound 23, 6-Ethyl-5-((tetrahydro-2H-pyran-4-yl)amino)-3-((2-((2-(vinylsulfonamido)ethyl)amino)pyridin-4-yl)amino)pyrazine-2-carboxamide]
5 | 10 to 100 | > 500 | 10 to 100 | C=CC(=O)NCCCNc1cc(Nc2nc(NC3CCOCC3)c(CC)nc2C(N)=O)ccn1 [Compound 24, 3-((2-((3-Acrylamidopropyl)amino)pyridin-4-yl)amino)-6-ethyl-5-((tetrahydro-2H-pyran-4-yl)amino)pyrazine-2-carboxamide]
6 | 1 to 10 | 100 to 500 | 10 to 100 | C#CC(=O)NCCCNc1cc(Nc2nc(NC3CCOCC3)c(CC)nc2C(N)=O)ccn1 [Compound 25, 6-Ethyl-3-((2-((3-propiolamidopropyl)amino)pyridin-4-yl)amino)-5-((tetrahydro-2H-pyran-4-yl)amino)pyrazine-2-carboxamide]
7 | 10 to 100 | > 500 | 100 to 500 | CC#CC(=O)NCCCNc1cc(Nc2nc(NC3CCOCC3)c(CC)nc2C(N)=O)ccn1 [Compound 26, 3-((2-((3-(But-2-ynamido)propyl)amino)pyridin-4-yl)amino)-6-ethyl-5-((tetrahydro-2H-pyran-4-yl)amino)pyrazine-2-carboxamide]
8 | 10 to 100 | > 500 | 10 to 100 | C=CS(=O)(=O)NCCCNc1cc(Nc2nc(NC3CCOCC3)c(CC)nc2C(N)=O)ccn1 [Compound 27, 6-Ethyl-5-((tetrahydro-2H-pyran-4-yl)amino)-3-((2-((3-(vinylsulfonamido)propyl)amino)pyridin-4-yl)amino)pyrazine-2-carboxamide]
9 | 100 to 500 | > 500 | 100 to 500 | C=CC(=O)NCCCC(=O)NCCc1cc(Nc2nc(NC3CCOCC3)c(CC)nc2C(N)=O)cc(OC)c1 [Compound 28, 3-((3-(2-(4-Acrylamidobutanamido)ethyl)-5-methoxyphenyl)amino)-6-ethyl-5-((tetrahydro-2H-pyran-4-yl)amino)pyrazine-2-carboxamide]
10 | 10 to 100 | > 500 | 10 to 100 | C=CC(=O)NCCC(=O)NCCc1cc(Nc2nc(NC3CCOCC3)c(CC)nc2C(N)=O)cc(OC)c1 [Compound 29, 3-((3-(2-(3-Acrylamidopropanamido)ethyl)-5-methoxyphenyl)amino)-6-ethyl-5-((tetrahydro-2H-pyran-4-yl)amino)pyrazine-2-carboxamide]
11 | 1 to 10 | > 500 | 100 to 500 | C=CC(=O)N(C)CCCC(=O)NCCc1cc(Nc2nc(NC3CCOCC3)c(CC)nc2C(N)=O)cc(OC)c1 [Compound 30, 6-Ethyl-3-((3-methoxy-5-(2-(4-(N-methylacrylamido)butanamido)ethyl)phenyl)amino)-5-((tetrahydro-2H-pyran-4-yl)amino)pyrazine-2-carboxamide]
